Laboratory results reported in US4068074A, “Cephalosporin derivatives having at the 3-position of the cephem ring a heterocyclic thiomethyl group with a carboxy or sulfo group and at the 7-position of the cephem ring an α-heterocylic acylaminophenyl-acetamide group” (priority 1974, dated 1978).
≈ marks a conversion by molar mass, not a printed value. Where two headings read alike, the source gives them in different places.

Legend:
Type in all cases: cell-based
Proteus vulgaris 0X 19US = experiment: MIC against bacteria (Table I), strain (2); conditions: 0X19US; (2) Proteus vulgaris 0X 19US; read-out: MIC
Description: (§1) Now, for illustrating the excellent pharmacological effects of the compounds of this invention, the values of MIC (γ/ml.) of the compounds against various bacteria are shown in Table 1, in which the compounds of this invention used are shown by example numbers.
(2) Proteus vulgaris 0X 19US

[1] = tested on: Proteus mirabilis IXM OM-19; experiment: MIC against bacteria (Table I), strain (3); conditions: IXMOM19
Description: as §1
(3) Proteus mirabilis IXM OM-19

[2] = tested on: Pseudomonas aeruginosa 99 (Gentamycin resistant); experiment: MIC against bacteria (Table I), strain (5)
Description: as §1
(5) Pseudomonas aeruginosa 99 (Gentamycin resistant)

[3] = tested on: Psuedomonas ovalis IMA 1002; experiment: MIC against bacteria (Table I), strain (6)
Description: as §1
(6) Psuedomonas ovalis IMA 1002

[4] = tested on: Escherichia coli kauffmann 0-1; experiment: MIC against bacteria (Table I), strain (7)
Description: as §1
(7) Escherichia coli kauffmann 0-1

[5] = tested on: Klebsiella pneumoniae ATCC 10031; experiment: MIC against bacteria (Table I), strain (8); conditions: ATCC10031
Description: as §1
(8) Klebsiella pneumoniae ATCC 10031

Salmonella typhi H901 W = experiment: MIC against bacteria (Table I), strain (9); conditions: Salmonella enterica, TYPHI
Description: as §1
(9) Salmonella typhi H901 W

Salmonella enteritidis = experiment: MIC against bacteria (Table I), strain (10); conditions: Salmonella enterica
Description: as §1
(10) Salmonella enteritidis

[6] = tested on: Shigella flexneri 2a 1675; experiment: MIC against bacteria (Table I), strain (11); conditions: 2A1675
Description: as §1

Shigella sonnei II 37148 = experiment: MIC against bacteria (Table I), strain (12); conditions: II37148
Description: as §1

[7] = tested on: Bacillus megatherium 10778; experiment: MIC against bacteria (Table I), strain (13)
Description: as §1

[8] = tested on: Bacillus subtilis ATCC 6633; experiment: MIC against bacteria (Table I), strain (14); conditions: ATCC6633
Description: as §1
(14) Bacillus subtilis ATCC 6633

[9] = tested on: Micrococcus flavus ATCC 10240; experiment: MIC against bacteria (Table I), strain (15); conditions: ATCC10240
Description: as §1
(15) Micrococcus flavus ATCC 10240

[10] = tested on: Staphylococcus aureus 209P; experiment: MIC against bacteria (Table I), strain (16)
Description: as §1
(16) Staphylococcus aureus 209P

[11] = tested on: Staphylococcus Shimanishi; experiment: MIC against bacteria (Table I), strain (17); conditions: Staphylococcus
Description: as §1
(17) Staphylococcus Shimanishi

Staphylococcus Onuma = experiment: MIC against bacteria (Table I), strain (18); conditions: (18) Staphylococcus Onuma; read-out: MIC
Description: as §1
(18) Staphylococcus Onuma

[12] = (3) Proteus mirabilis IXM OM-19, read-out: MIC
[13] = (5) Pseudomonas aeruginosa 99 (Gentamycin resistant), read-out: MIC
[14] = (6) Psuedomonas ovalis IMA 1002, read-out: MIC
[15] = (8) Klebsiella pneumoniae ATCC 10031, read-out: MIC
[16] = (13) Bacillus megatherium 10778, read-out: MIC
[17] = (14) Bacillus subtilis ATCC 6633, read-out: MIC
[18] = (11) Shigella flexneri 2a 1675, read-out: MIC
[19] = (12) Shigella sonnei II 37148, read-out: MIC
[20] = (15) Micrococcus flavus ATCC 10240, read-out: MIC

Structure (SMILES) | MIC (Proteus vulgaris 0X 19US) [µg/mL] | MIC [1, 12] [µg/mL] | MIC [2, 13] [µg/mL] | MIC [3, 14] [µg/mL] | MIC ([4]; Escherichia coli) [µg/mL] | MIC [5, 15] [µg/mL] | MIC (Salmonella typhi H901 W) [µg/mL] | MIC (Salmonella enteritidis; ENTERITIDIS) [µg/mL] | MIC [7, 16] [µg/mL] | MIC [8, 17] [µg/mL] | MIC ([9]; Micrococcus flavus) [µg/mL] | MIC [11] [µg/mL] | MIC (Staphylococcus Onuma) [µg/mL] | MIC [6, 18] [µg/mL] | MIC (Shigella sonnei II 37148; [19]) [µg/mL] | MIC [9, 20] [µg/mL] | MIC ([10]; Staphylococcus aureus, 209P) [µg/mL] | MIC ([7]; Bacillus, 10778) [µg/mL] | MIC ([8]; Bacillus subtilis) [µg/mL] | other results
O=C(O)CSc1nnc(SCC2=C(C(=O)O)N3C(=O)[C@@H](NC(=O)[C@H](NC(=O)c4csccc4=O)c4ccc(O)cc4)[C@H]3SC2)s1 [Example 31, 7-[D-α-(4-thiopyrone-3-carboxamido)-α-p-hydroxyphenylacetamido]-3-[5-carboxymethylthio-1,3,4-thiadiazol-2-yl]thiomethyl-Δ^3-cephem-4-carboxylic acid] | 1.56 (≈ 2.2 µM) | 0.39 (≈ 0.551 µM) | 50 (≈ 70.6 µM) | 50 (≈ 70.6 µM) | 3.13 (≈ 4.42 µM) | 6.25 (≈ 8.83 µM) | 0.39 (≈ 0.551 µM) | 0.39 (≈ 0.551 µM) | 0.39 (≈ 0.551 µM) | 0.39 (≈ 0.551 µM) | 3.13 (≈ 4.42 µM) | 3.13 (≈ 4.42 µM) | 6.25 (≈ 8.83 µM) |  |  |  |  |  |  | MIC ([6]; Shigella flexneri): 0.78 µg/mL (≈ 1.1 µM); MIC (Shigella sonnei II 37148; Shigella sonnei): 3.13 µg/mL (≈ 4.42 µM); MIC ([10]; (16) Staphylococcus aureus 209P, read-out: MIC): 0.39 µg/mL (≈ 0.551 µM)
O=C(O)CCCc1nnc(SCC2=C(C(=O)O)N3C(=O)[C@@H](NC(=O)[C@H](NC(=O)c4cnccc4O)c4ccccc4)[C@H]3SC2)s1 [Example 35, 7-[D-α-(4-hydroxynicotinoylamido)-α-phenylacetamido]-3-[5-(3-carboxypropyl)-1,3,4-thiadiazol-2yl]-thiomethyl-Δ^3 cephem-4-carboxylic acid] | 50 (≈ 74.5 µM) | 0.78 (≈ 1.16 µM) |  |  |  |  | 1.56 (≈ 2.33 µM) |  | 0.78 (≈ 1.16 µM) | 0.78 (≈ 1.16 µM) |  |  | 12.5 (≈ 18.6 µM) | 1.56 (≈ 2.33 µM) | 6.25 (≈ 9.32 µM) | 3.13 (≈ 4.67 µM) | 1.56 (≈ 2.33 µM) |  |  | MIC ([2]; Pseudomonas aeruginosa): 6.25 µg/mL (≈ 9.32 µM); MIC [3]: 6.25 µg/mL (≈ 9.32 µM); MIC ([4]; (7) Escherichia coli kauffmann 0-1, read-out: MIC): 3.13 µg/mL (≈ 4.67 µM); MIC ([5]; Klebsiella pneumoniae): 6.25 µg/mL (≈ 9.32 µM); MIC (Salmonella enteritidis; (10) Salmonella enteritidis, read-out: MIC): 0.78 µg/mL (≈ 1.16 µM)
Cc1cc(O)c(C(=O)N[C@@H](C(=O)N[C@@H]2C(=O)N3C(C(=O)O)=C(CSc4nnc(CCCC(=O)O)s4)CS[C@H]23)c2ccccc2)cn1 [Example 36, 7-[D-α-(4-hydroxy-6-methylnicotinoylamido)-α-phenylacetamido]-3-[5-(3-carboxypropyl)-1,3,4-thiadiazol-2-yl]thiomethyl-Δ^3-cephem-4-carboxylic acid] | 100 (≈ 146 µM) | 0.39 (≈ 0.57 µM) | 6.25 (≈ 9.13 µM) | 25 (≈ 36.5 µM) | 1.56 (≈ 2.28 µM) | 6.25 (≈ 9.13 µM) | 1.56 (≈ 2.28 µM) | 1.56 (≈ 2.28 µM) |  |  |  |  | 12.5 (≈ 18.3 µM) | 0.78 (≈ 1.14 µM) | 3.13 (≈ 4.57 µM) | 6.25 (≈ 9.13 µM) | 1.56 (≈ 2.28 µM) | 0.78 (≈ 1.14 µM) | 1.56 (≈ 2.28 µM) | 
COc1cc(C)ncc1C(=O)N[C@@H](C(=O)N[C@@H]1C(=O)N2C(C(=O)O)=C(CSc3nnc(SCC(=O)O)s3)CS[C@H]12)c1ccccc1 [Example 37, 7[-α-(4-methoxy-6-methylnicotinoylamido)-α-phenylacetamido]-3-(5-carboxymethyl-thio-1,3,4-thiadiazol-2yl)-thiomethyl-Δ^3-cephem-4-carboxylic acid] | 25 (≈ 35.6 µM) |  | 12.5 (≈ 17.8 µM) | 25 (≈ 35.6 µM) | 6.25 (≈ 8.89 µM) | 12.5 (≈ 17.8 µM) | 6.25 (≈ 8.89 µM) | 3.13 (≈ 4.45 µM) | 1.56 (≈ 2.22 µM) | 0.78 (≈ 1.11 µM) | 6.25 (≈ 8.89 µM) | 6.25 (≈ 8.89 µM) | 12.5 (≈ 17.8 µM) | 3.13 (≈ 4.45 µM) | 6.25 (≈ 8.89 µM) |  | 1.56 (≈ 2.22 µM) |  |  | MIC ([1]; Proteus mirabilis): 3.13 µg/mL (≈ 4.45 µM)
Cc1cc(O)c(C(=O)N[C@@H](C(=O)N[C@@H]2C(=O)N3C(C(=O)O)=C(CSc4nnc(CC(=O)O)s4)CS[C@H]23)c2ccccc2)cn1 [Example 38, 7-[D-α-(4-hydroxy-6-methylnicotinoylamido)-α-phenylacetamido]-3-(5-carboxymethyl-1,3,4-thiadiazol-2-yl)-thiomethyl-Δ^3-cephem-4-carboxylic acid] |  | 0.78 (≈ 1.19 µM) | 12.5 (≈ 19 µM) | 50 (≈ 76.1 µM) | 3.13 (≈ 4.77 µM) | 12.5 (≈ 19 µM) | 1.56 (≈ 2.38 µM) | 1.56 (≈ 2.38 µM) |  |  |  |  | 12.5 (≈ 19 µM) | 1.56 (≈ 2.38 µM) | 3.13 (≈ 4.77 µM) | 12.5 (≈ 19 µM) | 3.13 (≈ 4.77 µM) | 1.56 (≈ 2.38 µM) | 1.56 (≈ 2.38 µM) | 
